# Measurements taken from patent US20260297085A1, “1 H-PYRROLO[2,3-B]PYRIDIN-4-YL]-2-OXOPYRROLIDINE-3-CARBONITRILE DERIVATIVES AS TYROSINE KINASE 2 (TYK2) INHIBITORS FOR THE TREATMENT OF INFLAMMATORY DISEASES” (BIOGEN MA INC., priority 2023, published 2026).
# Counter-ions that a name gives are not always drawn.
# Tests used:
# [1] = target: T1, human TYK2 kinase domain (JH1) (Homo sapiens, UniProt P29597); test: JH1 biochemical assay for TYK2 (ADP-Glo kinase assay, recombinant JH1 catalytic domain, JAK3-974 peptide, 10 μM ATP)
# T1 construct: recombinantly generated catalytic kinase (also known as JH1) domain of human JAK1, JAK2, JAK3 and TYK2
# T1 sequence (P29597 897-1176 limits assumed): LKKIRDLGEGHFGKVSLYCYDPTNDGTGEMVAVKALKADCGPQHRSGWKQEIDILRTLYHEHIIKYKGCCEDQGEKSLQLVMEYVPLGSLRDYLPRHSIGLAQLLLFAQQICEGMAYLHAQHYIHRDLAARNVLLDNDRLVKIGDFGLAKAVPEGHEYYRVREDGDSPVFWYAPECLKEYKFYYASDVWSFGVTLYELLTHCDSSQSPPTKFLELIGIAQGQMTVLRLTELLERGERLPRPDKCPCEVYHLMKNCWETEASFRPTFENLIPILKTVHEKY
# In short: (§1)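 ADP-Glo luminescence with 50 μM peptide and 100 min reactions: JAK1 4 nM with JAK3-342 peptide; JAK2, JAK3 and TYK2 at 0.2, 0.3 and 2 nM with JAK3-974 peptide. Compounds tested from 10 or 1 μM top, 11 points, 3-fold. IC50 from a 4-parameter logistic fit of normalized activity.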
# [2] = target: T2, human JAK1 kinase domain (JH1) (Homo sapiens, UniProt P23458); test: JH1 biochemical assay for JAK1 (ADP-Glo kinase assay, recombinant JH1 catalytic domain, JAK3-342 peptide, 35 μM ATP)
# T2 construct: recombinantly generated catalytic kinase (also known as JH1) domain of human JAK1, JAK2, JAK3 and TYK2
# In short: as §1
# [3] = target: T3, human JAK2 kinase domain (JH1) (Homo sapiens, UniProt O60674); test: JH1 biochemical assay for JAK2 (ADP-Glo kinase assay, recombinant JH1 catalytic domain, JAK3-974 peptide, 15 μM ATP)
# T3 construct: recombinantly generated catalytic kinase (also known as JH1) domain of human JAK1, JAK2, JAK3 and TYK2
# In short: as §1
# [4] = target: T4, human JAK3 kinase domain (JH1) (Homo sapiens, UniProt P52333); test: JH1 biochemical assay for JAK3 (ADP-Glo kinase assay, recombinant JH1 catalytic domain, JAK3-974 peptide, 4 μM ATP)
# T4 construct: recombinantly generated catalytic kinase (also known as JH1) domain of human JAK1, JAK2, JAK3 and TYK2
# In short: as §1
# [5] = target: Tyk2 kinase activity on STAT4 in NK92 cells (Homo sapiens, UniProt P29597); test: pSTAT4 cell assay (MSD; NK92 cells, 30 ng/mL IL2 stimulation); type: cell-based; settings: 30 ng/mL IL2, 15 minutes
# In short: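 IC50 values derive from 4-parameter logistic fits of normalized percent activity against log compound concentration. Phospho-STAT was measured by MSD with anti-STAT4 antibodies after 15 min of 30 ng/mL IL2 in serum-starved NK92 cells pretreated 1 hr with compound.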
# [6] = target: JAK2 kinase activity on STAT5 in TF1 cells (Homo sapiens, UniProt O60674); test: pSTAT5 cell assay (MSD; TF1 cells, 30 ng/mL IL-3 stimulation); type: cell-based; settings: 30 ng/mL IL-3, 15 minutes
# Description: The inhibitory potency of compounds of the disclosure against the JAK2 kinase activity on STAT5 was evaluated using an MSD-platform plate-based assay format. TF1 cells natively expressing STAT5 and JAK2 were serum-starved to reduce background phosphorylation levels, then cells were treated with compounds of disclosure for 1 hour with a 10-point four-fold dilution series starting at 10 μM. Cells were then stimulated with 30 ng/mL IL-3 for 15 minutes. Cells were then lysed and pSTAT5 levels were quantitated using an MSD plate-based assay with anti-STAT5 antibodies. The data were normalized and the percent activity versus log concentration of compound was fitted with a 4-parameter logistic model to generate a curve and an IC50 value.
# [7] = target: JAK1 kinase activity on STAT3 in TF1 cells (Homo sapiens, UniProt P23458); test: pSTAT3 cell assay (MSD; TF1 cells, 30 ng/mL IL-6 stimulation); type: cell-based; settings: 30 ng/mL IL-6, 15 minutes
# Description: The inhibitory potency of compounds of the disclosure against the JAK1 kinase activity on STAT3 was evaluated using an MSD-platform plate-based assay format. TF1 cells natively expressing STAT3 and JAK1 were serum-starved to reduce background phosphorylation levels, then cells were treated with compounds of the disclosure for 1 hour with a 10-point four-fold dilution series starting at 10 μM. Cells were then stimulated with 30 ng/mL interleukin 6 (IL-6) for 15 minutes. Cells were lysed and pSTAT3 levels were quantitated using an MSD plate-based assay with anti-STAT3 antibodies. The data were normalized and the percent activity versus log concentration of compound was fitted with a 4-parameter logistic model to generate IC50 curves.
# T4 sequence (P52333 822-1111 limits assumed): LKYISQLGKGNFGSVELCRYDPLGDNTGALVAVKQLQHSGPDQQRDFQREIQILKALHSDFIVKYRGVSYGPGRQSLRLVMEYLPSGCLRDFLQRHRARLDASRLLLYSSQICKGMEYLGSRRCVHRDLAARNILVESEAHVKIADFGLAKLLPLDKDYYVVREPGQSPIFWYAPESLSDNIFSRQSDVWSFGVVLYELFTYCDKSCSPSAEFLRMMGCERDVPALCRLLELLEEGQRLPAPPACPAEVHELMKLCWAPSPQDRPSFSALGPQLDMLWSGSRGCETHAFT
# JAK1 kinase activity on STAT3 in TF1 cells, sequence (P23458 whole entry): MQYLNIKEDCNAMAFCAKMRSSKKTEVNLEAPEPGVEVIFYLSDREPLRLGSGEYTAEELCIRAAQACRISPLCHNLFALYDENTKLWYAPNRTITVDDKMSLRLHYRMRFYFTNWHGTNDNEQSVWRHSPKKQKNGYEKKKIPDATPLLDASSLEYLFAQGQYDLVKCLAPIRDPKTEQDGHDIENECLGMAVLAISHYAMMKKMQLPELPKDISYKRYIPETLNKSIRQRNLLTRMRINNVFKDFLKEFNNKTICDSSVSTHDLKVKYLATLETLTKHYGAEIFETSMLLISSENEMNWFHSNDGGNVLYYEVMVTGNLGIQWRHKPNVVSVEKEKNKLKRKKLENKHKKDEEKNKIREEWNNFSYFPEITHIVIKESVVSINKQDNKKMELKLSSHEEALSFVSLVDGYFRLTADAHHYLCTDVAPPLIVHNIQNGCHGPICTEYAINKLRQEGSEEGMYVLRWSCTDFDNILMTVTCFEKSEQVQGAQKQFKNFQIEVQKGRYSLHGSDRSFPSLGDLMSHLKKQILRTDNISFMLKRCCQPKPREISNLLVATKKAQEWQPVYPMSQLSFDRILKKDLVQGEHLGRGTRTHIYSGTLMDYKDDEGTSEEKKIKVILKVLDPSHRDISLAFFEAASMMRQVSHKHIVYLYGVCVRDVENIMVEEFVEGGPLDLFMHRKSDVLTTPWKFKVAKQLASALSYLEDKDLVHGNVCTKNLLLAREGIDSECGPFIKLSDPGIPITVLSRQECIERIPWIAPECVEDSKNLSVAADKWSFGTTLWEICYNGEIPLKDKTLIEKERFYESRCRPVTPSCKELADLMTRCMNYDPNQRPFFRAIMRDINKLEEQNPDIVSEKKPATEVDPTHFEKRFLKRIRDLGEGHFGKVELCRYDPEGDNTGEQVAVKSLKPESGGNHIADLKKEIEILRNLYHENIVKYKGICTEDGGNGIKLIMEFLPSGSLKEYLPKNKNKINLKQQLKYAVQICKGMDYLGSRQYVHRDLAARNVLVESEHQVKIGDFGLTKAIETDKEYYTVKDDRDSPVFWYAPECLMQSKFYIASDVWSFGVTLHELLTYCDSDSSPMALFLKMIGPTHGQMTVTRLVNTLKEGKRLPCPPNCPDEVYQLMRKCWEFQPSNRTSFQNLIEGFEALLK
# JAK2 kinase activity on STAT5 in TF1 cells, sequence (O60674 whole entry): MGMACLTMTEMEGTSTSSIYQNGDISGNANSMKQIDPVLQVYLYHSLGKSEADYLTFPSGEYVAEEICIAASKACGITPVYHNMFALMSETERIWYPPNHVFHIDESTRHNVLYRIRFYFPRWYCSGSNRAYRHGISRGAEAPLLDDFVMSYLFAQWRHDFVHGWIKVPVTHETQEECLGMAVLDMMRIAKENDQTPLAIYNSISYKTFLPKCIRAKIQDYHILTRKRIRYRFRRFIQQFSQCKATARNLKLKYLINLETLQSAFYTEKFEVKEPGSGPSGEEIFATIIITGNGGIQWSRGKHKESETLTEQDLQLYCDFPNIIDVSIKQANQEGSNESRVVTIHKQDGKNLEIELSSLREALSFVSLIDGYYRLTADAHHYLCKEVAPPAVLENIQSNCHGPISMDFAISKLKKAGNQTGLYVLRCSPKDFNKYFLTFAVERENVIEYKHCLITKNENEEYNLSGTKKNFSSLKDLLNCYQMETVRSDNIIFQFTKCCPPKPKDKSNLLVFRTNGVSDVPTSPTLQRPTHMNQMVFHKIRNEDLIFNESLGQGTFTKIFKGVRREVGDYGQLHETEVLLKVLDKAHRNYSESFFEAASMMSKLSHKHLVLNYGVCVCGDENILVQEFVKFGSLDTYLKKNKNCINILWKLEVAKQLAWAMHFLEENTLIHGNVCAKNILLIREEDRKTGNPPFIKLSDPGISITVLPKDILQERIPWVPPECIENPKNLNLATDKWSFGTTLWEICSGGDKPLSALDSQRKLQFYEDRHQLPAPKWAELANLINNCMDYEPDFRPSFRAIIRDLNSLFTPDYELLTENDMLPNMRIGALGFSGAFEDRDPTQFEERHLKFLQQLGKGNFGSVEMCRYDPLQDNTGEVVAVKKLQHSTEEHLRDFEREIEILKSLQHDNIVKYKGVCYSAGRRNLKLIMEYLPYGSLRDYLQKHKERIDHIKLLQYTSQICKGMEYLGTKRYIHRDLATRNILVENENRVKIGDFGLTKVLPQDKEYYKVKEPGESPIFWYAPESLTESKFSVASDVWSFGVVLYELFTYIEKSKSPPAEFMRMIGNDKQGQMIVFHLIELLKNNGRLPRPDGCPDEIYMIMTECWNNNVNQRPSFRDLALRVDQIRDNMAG
# T2 sequence (P23458 875-1153 limits assumed): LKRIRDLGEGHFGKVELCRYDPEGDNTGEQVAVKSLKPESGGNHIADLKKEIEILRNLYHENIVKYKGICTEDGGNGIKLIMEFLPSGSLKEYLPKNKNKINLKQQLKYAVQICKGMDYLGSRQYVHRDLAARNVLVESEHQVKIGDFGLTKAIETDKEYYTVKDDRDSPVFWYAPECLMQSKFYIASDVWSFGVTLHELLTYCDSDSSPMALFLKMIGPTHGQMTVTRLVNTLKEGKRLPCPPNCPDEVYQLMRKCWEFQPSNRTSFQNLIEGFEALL
# T3 sequence (O60674 849-1124 limits assumed): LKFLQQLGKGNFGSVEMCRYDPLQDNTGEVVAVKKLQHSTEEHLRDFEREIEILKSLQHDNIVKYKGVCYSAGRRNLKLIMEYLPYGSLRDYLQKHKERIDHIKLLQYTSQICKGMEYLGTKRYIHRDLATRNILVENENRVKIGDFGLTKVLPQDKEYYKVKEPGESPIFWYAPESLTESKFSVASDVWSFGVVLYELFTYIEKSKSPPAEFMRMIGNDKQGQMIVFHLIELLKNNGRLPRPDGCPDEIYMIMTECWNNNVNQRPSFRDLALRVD
# Tyk2 kinase activity on STAT4 in NK92 cells, sequence (P29597 whole entry): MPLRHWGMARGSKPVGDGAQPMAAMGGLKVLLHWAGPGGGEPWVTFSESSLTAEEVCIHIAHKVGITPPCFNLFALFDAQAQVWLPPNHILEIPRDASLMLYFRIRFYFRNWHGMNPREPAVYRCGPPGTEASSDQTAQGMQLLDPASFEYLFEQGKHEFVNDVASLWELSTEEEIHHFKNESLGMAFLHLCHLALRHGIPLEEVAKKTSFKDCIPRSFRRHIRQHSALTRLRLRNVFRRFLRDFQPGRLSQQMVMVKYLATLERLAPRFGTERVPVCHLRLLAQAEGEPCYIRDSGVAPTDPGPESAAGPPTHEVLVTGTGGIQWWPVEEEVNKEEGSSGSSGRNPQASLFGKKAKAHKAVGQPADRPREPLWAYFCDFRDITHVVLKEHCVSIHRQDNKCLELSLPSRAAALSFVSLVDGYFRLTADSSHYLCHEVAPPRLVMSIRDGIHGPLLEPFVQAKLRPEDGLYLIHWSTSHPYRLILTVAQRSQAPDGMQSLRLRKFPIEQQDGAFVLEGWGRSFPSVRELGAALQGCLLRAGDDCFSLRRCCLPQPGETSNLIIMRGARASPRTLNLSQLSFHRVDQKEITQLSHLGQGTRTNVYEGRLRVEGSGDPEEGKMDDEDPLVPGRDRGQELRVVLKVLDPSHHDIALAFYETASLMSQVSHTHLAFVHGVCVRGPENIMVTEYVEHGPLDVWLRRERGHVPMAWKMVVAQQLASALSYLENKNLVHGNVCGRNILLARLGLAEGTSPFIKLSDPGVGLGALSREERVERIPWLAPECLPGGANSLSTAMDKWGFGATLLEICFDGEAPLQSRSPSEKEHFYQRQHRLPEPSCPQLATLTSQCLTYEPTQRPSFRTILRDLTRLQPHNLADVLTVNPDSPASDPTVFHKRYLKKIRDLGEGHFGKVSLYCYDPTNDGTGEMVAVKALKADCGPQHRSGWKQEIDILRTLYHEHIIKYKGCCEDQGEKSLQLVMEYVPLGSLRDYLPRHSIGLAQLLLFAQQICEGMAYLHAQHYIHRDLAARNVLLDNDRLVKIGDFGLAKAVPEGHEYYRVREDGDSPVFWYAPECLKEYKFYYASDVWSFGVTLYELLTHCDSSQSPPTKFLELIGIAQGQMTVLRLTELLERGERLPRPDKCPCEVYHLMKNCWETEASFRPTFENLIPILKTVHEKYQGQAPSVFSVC
Compound,"IC50 ([1]; TYK2 JH1, ADP-Glo) [nM]","IC50 ([2]; JAK1 JH1, ADP-Glo) [nM]","IC50 ([3]; JAK2 JH1, ADP-Glo) [nM]","IC50 ([4]; JAK3 JH1, ADP-Glo) [nM]",IC50 [5] [nM],IC50 [6] [nM],IC50 [7] [nM],"IC50 ([1]; JH1 kinase domain, ADP-Glo) [nM]","IC50 ([2]; JH1 kinase domain, ADP-Glo) [nM]","IC50 ([3]; JH1 kinase domain, ADP-Glo) [nM]","IC50 ([4]; JH1 kinase domain, ADP-Glo) [nM]"
"C[C@@H]1CN(c2nc(-c3cnn(C4COC4)c3)cn3ncc(F)c23)C(=O)[C@]1(C#N)C1CC1 [Example 291, (3R,4S)-3-cyclopropyl-1-(3-fluoro-6-(1-(oxetan-3-yl)-1H-pyrazol-4-yl)pyrazolo[1,5-a]pyrazin-4-yl)-4-methyl-2-oxopyrrolidine-3-carbonitrile]",< 5,< 100,< 100,< 100,50 to 100,1000 to 5000,1000 to 5000,–,–,–,–
"C[C@@H]1CN(c2nc(-c3cnn(CC4(C#N)CC4)c3)cn3ncc(F)c23)C(=O)[C@]1(C#N)C1CC1 [Example 302, (3R,4S)-1-(6-(1-((1-cyanocyclopropyl)methyl)-1H-pyrazol-4-yl)-3-fluoropyrazolo[1,5-a]pyrazin-4-yl)-3-cyclopropyl-4-methyl-2-oxopyrrolidine-3-carbonitrile]",< 5,< 100,< 100,< 100,50 to 100,1000 to 5000,100 to 1000,–,–,–,–
"C[C@@H]1CN(c2ccnn3cc(-c4cnn(C5CC(F)(F)C5)c4)cc23)C(=O)[C@]1(C#N)C1CC1 [Example 157, (3R,4S)-3-cyclopropyl-1-(6-(1-(3,3-difluorocyclobutyl)-1H-pyrazol-4-yl)pyrrolo[1,2-b]pyridazin-4-yl)-4-methyl-2-oxopyrrolidine-3-carbonitrile]",–,–,–,–,50 to 100,1000 to 5000,100 to 1000,< 5,< 100,< 100,< 100
"C[C@@H]1CN(c2nc(-c3cnn([C@H]4CCOC4)c3)cn3ncc(F)c23)C(=O)[C@]1(C#N)C1CC1 [Example 191, (3R,4S)-3-cyclopropyl-1-(3-fluoro-6-(1-((S)-tetrahydrofuran-3-yl)-1H-pyrazol-4-yl)pyrazolo[1,5-a]pyrazin-4-yl)-4-methyl-2-oxopyrrolidine-3-carbonitrile]",–,–,–,–,50 to 100,1000 to 5000,1000 to 5000,< 5,< 100,< 100,< 100
"C[C@@H]1CN(c2ccnn3cc(-c4cnn(-c5ccccn5)c4)cc23)C(=O)[C@]1(C#N)C1CC1 [Example 158, (3R,4S)-3-cyclopropyl-4-methyl-2-oxo-1-(6-(1-(pyridin-2-yl)-1H-pyrazol-4-yl)pyrrolo[1,2-b]pyridazin-4-yl)pyrrolidine-3-carbonitrile]",–,–,–,–,> 100,> 10000,1000 to 5000,< 5,100 to 1000,100 to 1000,100 to 1000
"C[C@@H]1CN(c2ccnn3cc(-c4cnn([C@H]5CC5(F)F)c4)cc23)C(=O)[C@]1(C#N)C1CC1 (single isomer, unassigned) [Example 156]",–,–,–,–,50 to 100,1000 to 5000,1000 to 5000,< 5,100 to 1000,100 to 1000,< 100
"[2H]C([2H])([2H])n1cc(-c2cn3nccc3c(N3C[C@@H](C)[C@@](C#N)(C4CC4)C3=O)n2)cn1 [Example 201, (3R,4S)-3-cyclopropyl-4-methyl-1-(6-(1-(methyl-d3)-1H-pyrazol-4-yl)pyrazolo[1,5-a]pyrazin-4-yl)-2-oxopyrrolidine-3-carbonitrile]",–,–,–,–,20 to 50,100 to 1000,100 to 1000,< 5,< 100,< 100,< 100
"C[C@@H]1CN(c2nc(-c3cnn(C4CC4)c3)cc3ncsc23)C(=O)[C@]1(C#N)C1CC1 [Example 357, (3R,4S)-3-cyclopropyl-1-(6-(1-cyclopropyl-1H-pyrazol-4-yl)thiazolo[5,4-c]pyridin-4-yl)-4-methyl-2-oxopyrrolidine-3-carbonitrile]",< 5,< 100,< 100,< 100,20 to 50,< 100,< 100,–,–,–,–
"C[C@@H]1CN(c2ccnn3cc(-c4cccnc4)cc23)C(=O)[C@]1(C#N)C1CC1 [Example 60, (3R,4S)-3-cyclopropyl-4-methyl-2-oxo-1-(6-(pyridin-3-yl)pyrrolo[1,2-b]pyridazin-4-yl)pyrrolidine-3-carbonitrile]",–,–,–,–,> 100,> 10000,1000 to 5000,5 to 20,100 to 1000,100 to 1000,100 to 1000
"C[C@@H]1CN(c2nc(-c3cnn(C4CCOCC4)c3)cn3ncc(F)c23)C(=O)[C@]1(C#N)C1CC1 [Example 218, (3R,4S)-3-cyclopropyl-1-(3-fluoro-6-(1-(tetrahydro-2H-pyran-4-yl)-1H-pyrazol-4-yl)pyrazolo[1,5-a]pyrazin-4-yl)-4-methyl-2-oxopyrrolidine-3-carbonitrile]",< 5,< 100,< 100,< 100,50 to 100,100 to 1000,100 to 1000,–,–,–,–
"Cc1cc(-n2nc(N3C[C@@H](C)[C@@](C#N)(C4CC4)C3=O)c3ccncc32)ccn1 [Example 281, (3R,4S)-3-cyclopropyl-4-methyl-1-(1-(2-methylpyridin-4-yl)-1H-pyrazolo[3,4-c]pyridin-3-yl)-2-oxopyrrolidine-3-carbonitrile]",5 to 20,100 to 1000,1000 to 5000,100 to 1000,> 100,> 10000,1000 to 5000,–,–,–,–
"CC(=O)Nc1cc(-c2cc3c(N4C[C@@H](C)[C@@](C#N)(C5CC5)C4=O)ccnn3c2)ccn1 [Example 61, N-(4-(4-((3R,4S)-3-cyano-3-cyclopropyl-4-methyl-2-oxopyrrolidin-1-yl)pyrrolo[1,2-b]pyridazin-6-yl)pyridin-2-yl)acetamide]",–,–,–,–,20 to 50,5000 to 10000,100 to 1000,< 5,< 100,100 to 1000,100 to 1000
"C[C@@H]1CN(c2nc(-c3cnn(C(F)F)c3)cn3nccc23)C(=O)[C@]1(C#N)C1CC1 [Example 185, (3R,4S)-3-cyclopropyl-1-(6-(1-(difluoromethyl)-1H-pyrazol-4-yl)pyrazolo[1,5-a]pyrazin-4-yl)-4-methyl-2-oxopyrrolidine-3-carbonitrile]",–,–,–,–,20 to 50,100 to 1000,100 to 1000,< 5,< 100,< 100,< 100
"C[C@@H]1CN(c2nc(-c3ccc4c(cnn4C)c3)cn3nccc23)C(=O)[C@]1(C#N)C1CC1 [Example 225, (3R,4S)-3-cyclopropyl-4-methyl-1-(6-(1-methyl-1H-indazol-5-yl)pyrazolo[1,5-a]pyrazin-4-yl)-2-oxopyrrolidine-3-carbonitrile trifluoroacetate]",< 5,< 100,100 to 1000,< 100,> 100,1000 to 5000,1000 to 5000,–,–,–,–
"COc1cc(-c2cc3c(N4C[C@@H](C)[C@@](C#N)(C5CC5)C4=O)ccnn3c2)ccn1 [Example 65, (3R,4S)-3-cyclopropyl-1-(6-(2-methoxypyridin-4-yl)pyrrolo[1,2-b]pyridazin-4-yl)-4-methyl-2-oxopyrrolidine-3-carbonitrile]",–,–,–,–,50 to 100,> 10000,1000 to 5000,5 to 20,100 to 1000,100 to 1000,100 to 1000
